Marks after values point to notes of the source that are not given here.
System: mice
Experiment: Open field test
Type: in vivo
Method: Study of the effect of Phenotropil (100, 200, 300 mg/kg) on motor activity and exploratory behavior by the open field test on mice (16-24 g) in comparison with olanzapine (1 mg/kg) is shown in Tables 5-5.4. Olanzapine at higher doses has sedative activity, so for comparison with Phenotropil, the drug was used only at a dose of 1 mg/kg. The drugs and distilled water to control groups were injected intraperitoneally 40 minutes prior to the study. […] This indicates the ability of the drug to reversibility, unlike olanzapine.

What does the source list for `NC(=O)CN1CC(c2ccccc2)CC1=O` (racemic) [Compound 1, (RS)-2-(2-oxo-4-phenylpyrrolidine-1-yl)acetamide]?
increase of horizontal locomotor activity (100 mg/kg): 112.2%; increase of number of visits to the center vs control (100 mg/kg): 111%; increase of total exploratory behavior index (100 mg/kg): 50%; increase of total vertical locomotor activity (100 mg/kg): 237.5%; reduction of total index of washes vs control (100 mg/kg): 25%; decrease of total exploratory behavior index (200 mg/kg): 32%; increase of horizontal locomotor activity (200 mg/kg): 151.8%; increase of number of visits to the center vs control (200 mg/kg): 155%; vertical activity over three minutes vs control (200 mg/kg): −6.3%; increase of horizontal locomotor activity (300 mg/kg): 99.5%; increase of number of visits to the center vs control (300 mg/kg): 133%; increase of total index of explored holes (300 mg/kg): 27%; number of rearings at the first minute vs control (300 mg/kg): −75%; total number of rearings for 3 minutes vs control (300 mg/kg): +56%; Distance covered during 1st min (horizontal motor activity) (mice, 100 mg/kg i.p.): 23.7 ± 5*^; Distance during 2nd min (horizontal motor activity) (mice, 100 mg/kg i.p.): 22.5 ± 3.1; Distance during 3rd min (horizontal motor activity) (mice, 100 mg/kg i.p.): 44 ± 10.7; Explorations during 2nd min (mice, 100 mg/kg i.p.): 1.5 ± 0.4; Explorations during 3rd min (mice, 100 mg/kg i.p.): 1.3 ± 0.7; Number of explorations (holes) during 1st min (mice, 100 mg/kg i.p.): 0.5 ± 0.3; Number of washings during 1st min (mice, 100 mg/kg i.p.): 0.2 ± 0.2; Total distance at 3 min (horizontal motor activity) (mice, 100 mg/kg i.p.): 90.2 ± 8.7; Total number of explorations at 3 min (mice, 100 mg/kg i.p.): 3.3 ± 0.9; Total number of visits to the center at 3 min (mice, 100 mg/kg i.p.): 3.9 ± 0.6; Total number of washings at 3 min (mice, 100 mg/kg i.p.): 0.3 ± 0.2^; Visits to the center during 1st min (mice, 100 mg/kg i.p.): 0.7 ± 0.5; Visits to the center during 2nd min (mice, 100 mg/kg i.p.): 2.2 ± 0.8; Visits to the center during 3rd min (mice, 100 mg/kg i.p.): 1 ± 0.5; Washings during 2nd min (mice, 100 mg/kg i.p.): 0.1 ± 0.2^; Washings during 3rd min (mice, 100 mg/kg i.p.): 0 ± 0; vertical motor activity, 1st min (Distance covered) (mice, 100 mg/kg i.p.): 2.3 ± 1.1; vertical motor activity, 2nd min (mice, 100 mg/kg i.p.): 3.8 ± 1.7; vertical motor activity, 3rd min (mice, 100 mg/kg i.p.): 4.7 ± 1.6; vertical motor activity, total at 3 min (mice, 100 mg/kg i.p.): 10.8 ± 4.2; Distance covered during 1st min (horizontal motor activity) (mice, 200 mg/kg i.p.): 31.7 ± 2.8; Distance during 2nd min (horizontal motor activity) (mice, 200 mg/kg i.p.): 41.8 ± 7.0; Distance during 3rd min (horizontal motor activity) (mice, 200 mg/kg i.p.): 33.5 ± 4.7; Explorations during 2nd min (mice, 200 mg/kg i.p.): 0.8 ± 0.5; Explorations during 3rd min (mice, 200 mg/kg i.p.): 0.5 ± 0.5; Number of explorations (holes) during 1st min (mice, 200 mg/kg i.p.): 0.2 ± 0.2; Number of washings during 1st min (mice, 200 mg/kg i.p.): 0 ± 0; Total distance at 3 min (horizontal motor activity) (mice, 200 mg/kg i.p.): 107 ± 11.5; Total number of explorations at 3 min (mice, 200 mg/kg i.p.): 1.5 ± 0.9; Total number of visits to the center at 3 min (mice, 200 mg/kg i.p.): 4.7 ± 0.7; Visits to the center during 1st min (mice, 200 mg/kg i.p.): 0.3 ± 0.2; Visits to the center during 2nd min (mice, 200 mg/kg i.p.): 2.7 ± 0.4; Visits to the center during 3rd min (mice, 200 mg/kg i.p.): 1.7 ± 0.4; Washings during 2nd min (mice, 200 mg/kg i.p.): 0 + 0 *; Washings during 3rd min (mice, 200 mg/kg i.p.): 0 ± 0; vertical motor activity, 1st min (Distance covered) (mice, 200 mg/kg i.p.): 0 ± 0; vertical motor activity, 2nd min (mice, 200 mg/kg i.p.): 1.3 ± 0.7; vertical motor activity, 3rd min (mice, 200 mg/kg i.p.): 1.7 ± 0.7; vertical motor activity, total at 3 min (mice, 200 mg/kg i.p.): 3.0 ± 1.3; Distance covered during 1st min (horizontal motor activity) (mice, 300 mg/kg i.p.): 29.7 ± 12.3; Distance during 2nd min (horizontal motor activity) (mice, 300 mg/kg i.p.): 27.2 ± 10.2; Distance during 3rd min (horizontal motor activity) (mice, 300 mg/kg i.p.): 28 ± 6.4; Explorations during 2nd min (mice, 300 mg/kg i.p.): 1.5 ± 0.8; Explorations during 3rd min (mice, 300 mg/kg i.p.): 1.0 ± 0.8; Number of explorations (holes) during 1st min (mice, 300 mg/kg i.p.): 0.3 ± 0.2; Number of washings during 1st min (mice, 300 mg/kg i.p.): 0.2 ± 0.2; Total distance at 3 min (horizontal motor activity) (mice, 300 mg/kg i.p.): 84.8 ± 28.0; Total number of explorations at 3 min (mice, 300 mg/kg i.p.): 2.8 ± 1.4
